Measured values reported in ChEMBL document CHEMBL3045861, “Synthesis and insecticidal activity of N-tert-butyl-N,N'-diacylhydrazines containing 1,2,3-thiadiazoles” (2011).
≈ marks a conversion by molar mass, not a printed value.

Experiments:
Format in all cases: functional
Culex pipiens pallens [1] = test: Insecticidal activity against Culex pipiens pallens (mosquito) fourth-instar larvae assessed as insect mortality at 2 ug/mL measured 96 hr post compound exposure
Plutella xylostella [2] = test: Insecticidal activity against Plutella xylostella (diamondback moth) second-instar larvae grown on compound treated fresh cabbage leaves assessed as insect mortality at 200 ug/mL measured 96 hr post compound exposure by leaf film feeding method
Culex pipiens pallens [3] = test: Insecticidal activity against Culex pipiens pallens (mosquito) fourth-instar larvae assessed as insect mortality at 0.5 ug/mL measured 96 hr post compound exposure
Culex pipiens pallens [4] = test: Insecticidal activity against Culex pipiens pallens (mosquito) fourth-instar larvae assessed as insect mortality at 1 ug/mL measured 96 hr post compound exposure
Plutella xylostella [5] = test: Insecticidal activity against Plutella xylostella (diamondback moth) second-instar larvae grown on compound treated fresh cabbage leaves assessed as insect mortality at 400 ug/mL measured 96 hr post compound exposure by leaf film feeding method
Plutella xylostella [6] = test: Insecticidal activity against Plutella xylostella (diamondback moth) second-instar larvae grown on compound treated fresh cabbage leaves assessed as insect mortality measured 96 hr post compound exposure by leaf film feeding method

| SMILES | mortality at 2 µg/mL (Culex pipiens pallens [1]) | mortality at 200 µg/mL (Plutella xylostella [2]) | mortality at 0.5 µg/mL (Culex pipiens pallens [3]) | mortality at 1 µg/mL (Culex pipiens pallens [4]) | mortality at 400 µg/mL (Plutella xylostella [5]) | LC50 (Plutella xylostella [6]) |
| --- | --- | --- | --- | --- | --- | --- |
| Cc1nnsc1C(=O)N(NC(=O)c1ccc([N+](=O)[O-])cc1)C(C)(C)C | 30% | 33% | – | – | – | – |
| Cc1nnsc1C(=O)N(NC(=O)c1cccc([N+](=O)[O-])c1)C(C)(C)C | 10% | 34% | – | – | – | – |
| Cc1nnsc1C(=O)N(NC(=O)c1ccccc1[N+](=O)[O-])C(C)(C)C | 20% | 16% | – | – | – | – |
| Cc1nnsc1C(=O)N(NC(=O)c1cccc(C(F)(F)F)c1)C(C)(C)C | 100% | 32% | 0% | 100% | – | – |
| Cc1nnsc1C(=O)N(NC(=O)c1ccc(C(F)(F)F)cc1)C(C)(C)C | 40% | 13% | – | – | – | – |
| Cc1nnsc1C(=O)N(NC(=O)c1ccc(Cl)cc1)C(C)(C)C | 20% | – | – | – | 43% | – |
| Cc1nnsc1C(=O)N(NC(=O)c1cccc(Cl)c1)C(C)(C)C | 0% | 25% | – | – | – | – |
| Cc1nnsc1C(=O)N(NC(=O)c1ccccc1Cl)C(C)(C)C | 20% | 24% | – | – | – | – |
| COc1cccc(C(=O)NN(C(=O)c2snnc2C)C(C)(C)C)c1 | 10% | – | – | – | 10% | – |
| COc1ccc(C(=O)NN(C(=O)c2snnc2C)C(C)(C)C)cc1 | 10% | – | – | – | 28% | – |
| COc1ccccc1C(=O)NN(C(=O)c1snnc1C)C(C)(C)C | 10% | 29% | – | – | – | – |
| Cc1ccc(C(=O)NN(C(=O)c2snnc2C)C(C)(C)C)cc1 | 0% | 37% | – | – | – | – |
| Cc1cccc(C(=O)NN(C(=O)c2snnc2C)C(C)(C)C)c1 | 20% | 12% | – | – | – | – |
| Cc1ccccc1C(=O)NN(C(=O)c1snnc1C)C(C)(C)C | 100% | 68% | 30% | 100% | – | – |
| Cc1nnsc1C(=O)NN(C(=O)c1ccc([N+](=O)[O-])cc1)C(C)(C)C | 10% | 5% | – | – | – | – |
| Cc1nnsc1C(=O)NN(C(=O)c1cccc([N+](=O)[O-])c1)C(C)(C)C | 30% | – | – | – | 23% | – |
| Cc1nnsc1C(=O)NN(C(=O)c1ccccc1[N+](=O)[O-])C(C)(C)C | 10% | – | – | – | 45% | – |
| Cc1nnsc1C(=O)NN(C(=O)c1ccc(C(F)(F)F)cc1)C(C)(C)C | 30% | 5% | – | – | – | – |
| Cc1nnsc1C(=O)NN(C(=O)c1cccc(C(F)(F)F)c1)C(C)(C)C | 40% | 46% | – | – | – | – |
| Cc1nnsc1C(=O)NN(C(=O)c1ccccc1C(F)(F)F)C(C)(C)C | 10% | 15% | – | – | – | – |
| Cc1nnsc1C(=O)NN(C(=O)c1ccc(Cl)cc1)C(C)(C)C | 100% | 25% | 10% | 100% | – | – |
| Cc1nnsc1C(=O)NN(C(=O)c1cccc(Cl)c1)C(C)(C)C | 30% | 0% | – | – | – | – |
| Cc1nnsc1C(=O)NN(C(=O)c1ccccc1Cl)C(C)(C)C | 10% | 79% | – | – | – | 28 µg/mL (≈ 79.4 µM) |
| COc1cccc(C(=O)N(NC(=O)c2snnc2C)C(C)(C)C)c1 | 20% | 37% | – | – | – | – |
| COc1ccc(C(=O)N(NC(=O)c2snnc2C)C(C)(C)C)cc1 | 10% | 25% | – | – | – | – |
| COc1ccccc1C(=O)N(NC(=O)c1snnc1C)C(C)(C)C | 10% | – | – | – | 30% | – |
| Cc1cccc(C(=O)N(NC(=O)c2snnc2C)C(C)(C)C)c1 | 20% | 0% | – | – | – | – |
| Cc1ccc(C(=O)N(NC(=O)c2snnc2C)C(C)(C)C)cc1 | 10% | 15% | – | – | – | – |
| Cc1ccccc1C(=O)N(NC(=O)c1snnc1C)C(C)(C)C | 20% | 8% | – | – | – | – |
| CCc1ccc(C(=O)NN(C(=O)c2cc(C)cc(C)c2)C(C)(C)C)cc1 [TEBUFENOZIDE] | 100% | 40% | 60% | 100% | – | 26 µg/mL (≈ 73.8 µM) |
